From patent US9035022B2, “Cyclic CRF antagonist peptides” (Salk Institute for Biological Studies, priority 2010, dated 2015)

Tested on: adrenalectomized (ADX) rats
Test: In vivo assay of ACTH secretion in adrenalectomized (ADX) rats
Parameters: species or system rat
Experimental: The in vivo assays which are employed to test these CRF antagonists use adrenalectomized (ADX) rats. […] Their diet is supplemented with 0.9% NaCl in the drinking water and with oranges. Two days prior to the experiments, the animals are equipped with jugular cannulae, as described in C. […] On the morning of the experiments, the i.v. cannulae are connected to a line filled with heparinized saline, and the rats are placed in individual buckets and left undisturbed for 2 hours. For the experiment, a first blood sample of 0.3 mL is withdrawn, the test solution is injected (in an 0.2-0.5 mL volume), and subsequent blood samples are obtained at about 15, 45, 90 and 120 minutes. The blood samples are centrifuged, and the separated plasma are kept frozen (−20° C.) until assayed for ACTH values. Plasma ACTH levels are measured as described in C.

Substance | inhibition of secretion of ACTH and corticosterone (general procedure of Example I) | inhibition of secretion of ACTH and β-END-LI (administration of the peptide)
[Aib^19,24,32, Orn^25]-Astressin B [V] | inhibits the secretion of ACTH and corticosterone | 
[Tyr-Asp^1, Aib^19,24,32]-Astressin B [IV] |  | inhibits the secretion of ACTH and β-END-LI
